According to patent publication US20040247699A1, “Method for the prevention or treatment of overweight in mammals” (priority 2002, published 2004):

Assay: Effects on physical activity (ambulatory counts)
Conditions: 12.5 mg caffeine per kg rat oral, period when rats are normally asleep
Experimental: In the study as described in example 1, the physical activity of the animals was determined by monitoring ambulatory counts.
The effects of caffeine on physical activity was tested in rats and compared to placebo (water). In a placebo controlled cross-over design as described in example 1, the effects of administration of either 12.5 mg caffeine per kg of rat or water on physical activity was determined. Physical activity of the animals was determined by monitoring ambulatory counts.
Results are shown as the average ambulatory counts per 26 minutes.

Cn1c(=O)c2c(ncn2C)n(C)c1=O [caffeine]
ambulatory counts per 26 minutes compared to placebo: ambulatory counts increase
